Results from US7910324B2, “Method of screening for compounds which affect the processing of EphA4 by γ-secretase” (priority 2007, dated 2011).

Key:
[1] = tested on: γ-secretase cleavage of rat EphA4 with HA tag in HEK293 cells; assay: EphA4 processing in EphA4-HA transfected 293/EBNA-1 cells, Western blot with anti-HA antibody; format: cell-based; conditions: Compound E 50 nM, one day, EphA4-HA transfected 293/EBNA-1 (HEK293) cells
Protocol: Whether or not EphA4 is a substrate for γ-secretase was evaluated using HEK293 cells expressing EphA4 with an HA tag added to its C-terminus, in the presence of a γ-secretase inhibitor. As the γ-secretase inhibitor, (2S)-2-{[(3,5-difluorophenyl)acetyl]amino}-N-[(3S)-1-methyl-2-oxo-5-phenyl-2,3-dihydro-1H-1,4-benzodiazepin-3-yl]propanamide (hereinafter, sometimes referred to as “Compound E”) (Alexis Biochemicals) was used.
293/EBNA-1 cell strain (Invitrogen) was cultured in 10% FBS (Hyclone)/DMEM (Invitrogen) under 5% CO2 at 37° C., followed by transfection thereinto of a gene encoding rat EphA4 with an HA tag added to its C-terminus with Lipofectamine 2000 (Invitrogen). After one day culture under the same conditions, Compound E (γ-secretase inhibitor, Alexis Biochemicals) was added to the medium (final concentration: 50 nM). Cells were cultured for another day under the same conditions. Then, the transfected HEK293 cells were collected with PBS (Sigma) and sonicated with a sonicator (Taitec VP-5S) to disrupt cells. Then, the quantity of protein was determined with Protein Assay Kit (BioRad). Samples (2 μg each) were taken from proteins obtained from Compound E-added cells and Compound E-not added cells, respectively, and subjected to SDS-PAGE, followed by Western blotting with an anti-HA antibody (Roche) (final concentration: 0.2 μg/ml). […]

[2] = tested on: γ-secretase cleavage of EphA4 in rat hippocampal neurons; assay: EphA4 processing in primary culture of rat hippocampal neurons, Western blot with anti-EphA4 antibody; format: cell-based; conditions: Compound E 50 nM, one week
Protocol: Whether or not EphA4 is a substrate for γ-secretase was evaluated using a primary culture of rat hippocampal neurons in the presence of a γ-secretase inhibitor. As the γ-secretase inhibitor, (2S)-2-{[(3,5-difluorophenyl)acetyl]amino}-N-[(3S)-1-methyl-2-oxo-5-phenyl-2,3-dihydro-1H-1,4-benzodiazepin-3-yl]propanamide (Compound E) (Alexis Biochemicals) was used.
The hippocampus was isolated from embryonic day 18 SD rats (Charles River) and subjected to culture. Specifically, embryos were removed aseptically from pregnant rats under etherization. The brain was removed from each embryo and dipped in 20% FBS (Hyclone)/HBSS (Sigma). The hippocampus was collected from the thus obtained brain under a stereomicroscope. The collected hippocampus was treated in an enzyme solution containing 0.25% trypsin (Invitrogen) and 0.5 mg/ml DNase (Sigma) at 37° C. for 10 minutes to disperse cells. This enzyme reaction was terminated by adding 20% FBS (Hyclone)/HBSS (Sigma). Then, 2 ml of HBSS (Sigma) was added to the resultant cells. The HBSS-added cell mass was re-dispersed by gentle pipetting. The resultant neuron suspension was diluted with a medium and plated in 10 cm dishes at an initial cell density of 1.5×10^6 cells/dish. […] Then, cells were collected with PBS and subjected to quantitative determination of protein. […]

SMILES: C[C@H](NC(=O)Cc1cc(F)cc(F)c1)C(=O)N[C@H]1N=C(c2ccccc2)c2ccccc2N(C)C1=O [Compound E, (2S)-2-{[(3,5-difluorophenyl)acetyl]amino}-N-[(3S)-1-methyl-2-oxo-5-phenyl-2,3-dihydro-1H-1,4-benzodiazepin-3-yl]propanamide]
- accumulation of EphA4 CTF band around 50 kDa (EphA4 undegraded product) [1]: a band around 50 kDa (CTF) was accumulated specifically
- accumulation of EphA4 CTF band around 50 kDa [2]: a band around 50 kDa (CTF) was accumulated specifically
